These results are taken from publication PMC4919066 (PLoS Pathogens, 2016).

Where a name gives a salt, the structure may show the parent alone.

The test system of series [1] is HCMV. Briefly: Virus entry, pp65 immunofluorescence assay. The class given is cell-based, Human Cytomegalovirus. As to conditions: emetine 75 nM, GCV 10 μM, CpG 2006 10 μM, added 24 h prior to infection.
The test system of series [2] is clinical isolates of HSV2. The experiment in a line: HSV-2 plaque assay in HFFs. In kind it is cell-based. Particulars: Human alphaherpesvirus 2, read-out: Mean EC50 ± SD. The method, then: (§1) The pp28-luciferase HCMV Towne and a GCV-resistant pp28-luciferase were used. The recombinant viruses express luciferase under the control of the late CMV gene promoter, pp28. Luciferase expression is activated 48–72 hours post infection (hpi). The recombinant viruses provide a highly-sensitive reporter system which correlates with plaque reduction assay. The Towne HCMV strain (ATCC VR-977) was used for plaque reduction, quantitative reverse transcriptase PCR (qRT-PCR), and immunoprecipitation assays. Human herpes virus strains were: luciferase HSV1- KOS/Dlux/oriS [52] and clinical isolates of HSV2. The clinical isolates were provided by the clinical microbiology laboratory with no identifiers that can link to a specific subject. Murid Herpesvirus (MCMV: ATCC VR-1399) was used for infection of mouse embryonic fibroblasts (MEFs) and mice.
Human Foreskin Fibroblasts (HFFs) passage 12–16 (ATCC, CRL-2088) and mouse embryonic fibroblasts (MEFs) passage 9–14 (ATCC, CRL-1658) were grown in Dulbecco's Modified Eagle Medium (DMEM) containing 10% fetal bovine serum (FBS) (Gibco, Carlsbad, CA) in a 5% CO2 incubator at 37°C. […] Luciferase activity was measured 72 h following second cycle infection. […] After incubation at 37°C for 10 days (for HCMV), 3 days for MCMV or 2 days (for HSV), the overlay was removed and plaques were counted after crystal violet staining.

The subject of series [3] is HCMV Towne. Briefly: Add-on and removal studies, plaque titration. The class given is cell-based, Human Cytomegalovirus. As to conditions: supernatants at 72 hpi. The method, then: For time-of-removal studies, medium containing the compounds was removed at 0, 6, 12, 24, 36 and 48 hpi, cells were washed three times with PBS, and drug-free medium was added. Culture supernatants were collected at 72 hpi and titration of infectious virus was performed after 14 days by plaque assay.

Series [4] has as its system HCMV. The experiment in a line: Anti-HCMV activity in RPS14 knockdown cells (sh-RPS14). In kind it is cell-based, Human Cytomegalovirus. As to conditions: emetine 75 nM, luciferase, plaque reduction, viral proteins at 72 hpi. The method, then: Human Foreskin Fibroblasts (HFFs) passage 12–16 (ATCC, CRL-2088) and mouse embryonic fibroblasts (MEFs) passage 9–14 (ATCC, CRL-1658) were grown in Dulbecco's Modified Eagle Medium (DMEM) containing 10% fetal bovine serum (FBS) (Gibco, Carlsbad, CA) in a 5% CO2 incubator at 37°C. Infection with HCMV or HSV was performed in HFFs, and infection with mouse CMV was performed in MEFs. For HCMV, cells were seeded in either a 96-well plate or 100 mm culture plates (Corning Costar, Sigma Aldrich) at 0.5 or 2 million cells /plate. Following 90 minute adsorption, media was removed and cells were washed with PBS. Media containing 4% FBS and compounds were added to each well. Infected treated HFFs were collected at 72 hpi and lysates were assayed for luciferase activity using a luciferase assay kit (Promega, Madison, WI) on GloMax-Multi+ Detection System (Promega). […] Luciferase activity was measured 72 h following second cycle infection. […] After incubation at 37°C for 10 days (for HCMV), 3 days for MCMV or 2 days (for HSV), the overlay was removed and plaques were counted after crystal violet staining.
Human TRC lentiviral shRNA constructs (Sigma-Aldrich) were used for RPS14 knockdown (KD) in HFFs. […] Control HFFs and RPS14 KD HFFs were counted and equal number of cells was plated prior to infection or treatment.

The test system of series [5] is protein synthesis in HFFs. The experiment in a line: Translation inhibition assay. As to conditions: nM concentrations, non-infected or HCMV-infected cells, 24 h. The class given is cell-based, human. As to the method: […] HFFs were seeded in a 96-well black, clear bottom tissue culture plate. […] A protein synthesis assay kit (Cayman Chemical, Ann Arbor, Michigan) was used according to manufacturer's protocol to quantify emetine-mediated translation inhibition using a fluorescence based assay.

Series [6] relates to MCMV. The experiment in a line: MCMV plaque reduction assay in MEFs. In kind it is cell-based, mouse CMV. The method, then:
as §1
(§2) Human Foreskin Fibroblasts (HFFs) passage 12–16 (ATCC, CRL-2088) and mouse embryonic fibroblasts (MEFs) passage 9–14 (ATCC, CRL-1658) were grown in Dulbecco's Modified Eagle Medium (DMEM) containing 10% fetal bovine serum (FBS) (Gibco, Carlsbad, CA) in a 5% CO2 incubator at 37°C. Infection with HCMV or HSV was performed in HFFs, and infection with mouse CMV was performed in MEFs. For HCMV, cells were seeded in either a 96-well plate or 100 mm culture plates (Corning Costar, Sigma Aldrich) at 0.5 or 2 million cells /plate. Following 90 minute adsorption, media was removed and cells were washed with PBS. Media containing 4% FBS and compounds were added to each well. Infected treated HFFs were collected at 72 hpi and lysates were assayed for luciferase activity using a luciferase assay kit (Promega, Madison, WI) on GloMax-Multi+ Detection System (Promega). In second cycle assays, supernatants were collected from all conditions of the first cycle at 96 hpi and used for infection of fresh HFFs in 96-well plates. Luciferase activity was measured 72 h following second cycle infection. […] After incubation at 37°C for 10 days (for HCMV), 3 days for MCMV or 2 days (for HSV), the overlay was removed and plaques were counted after crystal violet staining.
(Plaque reduction counts the foci of infection that form in a cell layer.)

Series [7] deals with pp28-luciferase HCMV Towne. The experiment in a line: Second cycle infection luciferase assay. The class given is cell-based, Human Cytomegalovirus. Particulars: emetine 75 nM. As to the method: as §2, with “infection. For HSV1-KOS/Dlux/oriS, a luciferase assay was performed at 24 hpi.” for “infection.”
Series [8] in a line: Cell viability, MTT-based colorimetric assay. As to conditions: human, non-infected human foreskin fibroblasts (HFFs), cell viability after 72 h. The method, then:
Cell viability was determined by an MTT-based colorimetric assay (Sigma-Aldrich), and performed at the same time points as the antiviral assay.

Series [9] has as its system MDM2-p53. Briefly: Co-immunoprecipitation MDM2-p53. In kind it is cell-based, human. As to conditions: emetine 75 nM, infected high-density cells, 24 hpi, MG132. As to the method:
Non-infected, infected or emetine-treated HFFs were treated with MG132 (10 μM) for 12h. Cells were harvested after 24 hpi and lysed with IP buffer containing 150 mM NaCl, 50mM Tris pH 7.5, 2 mM EDTA, 0.5% TritonX-100 and 0.5% NP-40-40. 1 mg of lysate was precleared with bead slurry for 30 min. The precleared lysates were incubated with anti-MDM2 (2 μg) antibody overnight. The antibody complexes were isolated using protein A/G beads (Santa Cruz), washed three times with 50% IP buffer. The immunoprecipitate-protein A/G beads were boiled in SDS sample buffer, and the supernatant was analyzed on SDS-PAGE gels after immunoblotting as described previously. 1% of the cell lysate used for IP was loaded on gels as ‘Input’. Confirmatory reverse IPs were performed as described in each experiment. Isotype control antibodies included: rabbit IgG polyclonal, mouse IgG2a kappa and mouse IgG2b kappa monoclonal (Abcam). Mouse monoclonal RPS19 antibody (Abcam) served as an additional negative control for the IPs. Densitometry analysis was performed to determine relative ratio of immunoprecipitated protein to its input level.

As usually defined, the EC50 is the concentration that produces a half-maximal response. By CC50 is commonly meant the concentration giving 50% cytotoxicity.

In the case of `CC[C@H]1CN2CCc3cc(OC)c(OC)cc3[C@@H]2C[C@@H]1C[C@H]1NCCc2cc(OC)c(OC)cc21` [emetine, emetine dihydrochloride hydrate], the “inhibition of viral entry” value in [1] was “neither emetine nor GCV inhibited viral entry”. Also, the EC50 in series [2] was found to be 33 nM; in series [6] (in Mus musculus, MCMV, plaque assay, read-out: Mean EC50 ± SD), 36 nM. For the same compound, the “anti-HCMV activity when added after infection (add-on)” value in series [3] (addition after 12 h) is “loss of activity against HCMV”. Moreover, the “time compound is required to fully inhibit HCMV (removal assay)” value in [3] (plaque assay) was “at least 24 h”. In addition, the “HCMV inhibition in high-density sh-RPS14 cells” value in series [4] is “unable to inhibit HCMV”. In addition, the “inhibition of protein synthesis” value in [5] is “did not inhibit protein synthesis”. Further, in [6] (emetine 75 nM, 0.5 and 2 million cells/plate), the “MCMV plaque reduction and cell density” value is “cell-density dependent response”. For the same compound, in [7] (0.5 million cells/plate), the “increase in pp28-luciferase activity, second cycle infection, compared to infected control” value is on record as 1.5 fold. In series [7] (1 and 2 million cells/plate), the “pp28-luciferase activity, second cycle infection, compared to infected control” value is on record as “near complete inhibition”. Also, in series [8], the CC50 at 72 h was found to be 8 ± 0.56 µM. For the same compound, the “interaction between MDM2 and p53” value in series [9] is “disrupted”.
